# From patent US12691093B2 (THE TRUSTEES OF INDIANA UNIVERSITY, priority 2020, dated 2026)
# Tested on: MC38-OVA cells
# Experiment: CD8+ T cell cytotoxicity assay (OT-I CD8+ T cells co-cultured with MC38-OVA cells, luciferase)
# Format: cell-based, mouse
# Settings: each drug 5.0 μM; in vitro luciferase assay
# Description: MC38-OVA cells expressing luciferase were co-cultured with OT-I CD8+ T cells in the presence of each drug (5.0 μM) and the T cell-mediated cytotoxicity was measured by the luciferase assay. Difference (log 2): (log 2 [relative viability] >1; P<0.05). Relative viability=(tumor cell viability of treated group)/(tumor cell viability of control group). […] Statistical analysis was conducted using 1-way ANOVA.
# T cells were then centrifuged and cultured in RPMI1640 medium containing of 2 ng/ml murine IL2, 10% FBS and 1% PS.To measure the cytotoxicity of CD8+ T cells, 50,000 enriched CD8+ T cells were mixed in 96-well plates with MC38-OVA cells at ratios of 5:1, 1:1 or 1:5. […] We assessed the killing efficiency by measuring the activity of luciferase (#E1910, Dual-Luciferase® Reporter Assay System, Promega) after 6 hours of co-culture of the T-cells together with the tumor cells.
# The CD8+ T cells were freshly isolated from the spleen of OT-I mouse (C57BL/6-Tg (TcraTcrb) 1100Mjb/J).
row,Molecule,ranking in screen of antigen-specific OT-I CD8+ T-cell killing of MC38-OVA tumor cells
1,COc1ccc(-c2coc3cc(O)cc(O)c3c2=O)cc1 [biochanin A],top-ranked compounds that most potently affected the T-cell activity
2,icariin,top-ranked compounds that most potently affected the T-cell activity
